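Assay format: 96-well plates, 48-hour exposure. GI50 = concentration required for 50% inhibition of growth. TGI denotes the concentration required for complete inhibition of growth.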
What was measured:
Assay in all cases: growth of human tumour cells (NCI), 48 h; in the data active means GI50 below about 0.43 µM; inactive means the rest
786-0 renal = test system: 786-0 renal
A498 renal = test system: A498 renal
A549 NSCLC = test system: A549 NSCLC
ACHN renal = test system: ACHN renal
BT-549 breast = test system: BT-549 breast
CAKI-1 renal = test system: CAKI-1 renal
CCRF-CEM leukemia = test system: CCRF-CEM leukemia
COLO 205 colon = test system: COLO 205 colon
DU-145 prostate = test system: DU-145 prostate
EKVX NSCLC = test system: EKVX NSCLC
HCC-2998 colon = test system: HCC-2998 colon
HCT-116 colon = test system: HCT-116 colon
HCT-15 colon = test system: HCT-15 colon
HL-60(TB) leukemia = test system: HL-60(TB) leukemia
HOP-62 NSCLC = test system: HOP-62 NSCLC
HS 578T breast = test system: HS 578T breast
HT29 colon = test system: HT29 colon
IGROV1 ovarian = test system: IGROV1 ovarian
K-562 leukemia = test system: K-562 leukemia
KM12 colon = test system: KM12 colon
LOX IMVI melanoma = test system: LOX IMVI melanoma
M14 melanoma = test system: M14 melanoma
MALME-3M melanoma = test system: MALME-3M melanoma
MCF7 breast = test system: MCF7 breast
MDA-MB-231 breast = test system: MDA-MB-231 breast
MDA-MB-435 = test system: MDA-MB-435
MOLT-4 leukemia = test system: MOLT-4 leukemia
NCI-H226 lung = test system: NCI-H226 lung
NCI-H23 lung = test system: NCI-H23 lung
NCI-H460 lung = test system: NCI-H460 lung
NCI-H522 lung = test system: NCI-H522 lung
NCI/ADR-RES ovarian = test system: NCI/ADR-RES ovarian
OVCAR-3 ovarian = test system: OVCAR-3 ovarian
OVCAR-4 ovarian = test system: OVCAR-4 ovarian
OVCAR-5 ovarian = test system: OVCAR-5 ovarian
OVCAR-8 ovarian = test system: OVCAR-8 ovarian
PC-3 prostate = test system: PC-3 prostate
RPMI-8226 leukemia = test system: RPMI-8226 leukemia
SF-268 CNS = test system: SF-268 CNS
SF-295 CNS = test system: SF-295 CNS
SF-539 CNS = test system: SF-539 CNS
SK-MEL-2 melanoma = test system: SK-MEL-2 melanoma
SK-MEL-28 melanoma = test system: SK-MEL-28 melanoma
SK-OV-3 ovarian = test system: SK-OV-3 ovarian
SN12C renal = test system: SN12C renal
SNB-19 CNS = test system: SNB-19 CNS
SNB-75 CNS = test system: SNB-75 CNS
SR leukemia = test system: SR leukemia
SW-620 colon = test system: SW-620 colon
T-47D breast = test system: T-47D breast
TK-10 renal = test system: TK-10 renal
U251 CNS = test system: U251 CNS
UACC-257 melanoma = test system: UACC-257 melanoma
UACC-62 melanoma = test system: UACC-62 melanoma
UO-31 renal = test system: UO-31 renal
HOP-92 NSCLC = test system: HOP-92 NSCLC
RXF 393 renal = test system: RXF 393 renal

O=C(O)c1cc(CC2Cc3cc4c(cc3C2=O)CCC4)cc2c1CCC2 (stereo not drawn)
> 100 µM: TGI (786-0 renal) | TGI (A498 renal) | TGI (A549 NSCLC) | TGI (ACHN renal) | TGI (BT-549 breast) | TGI (CAKI-1 renal) | TGI (CCRF-CEM leukemia) | TGI (COLO 205 colon) | TGI (DU-145 prostate) | TGI (EKVX NSCLC) | TGI (HCC-2998 colon) | TGI (HCT-116 colon) | TGI (HCT-15 colon) | TGI (HL-60(TB) leukemia) | TGI (HOP-62 NSCLC) | TGI (HS 578T breast) | TGI (HT29 colon) | TGI (IGROV1 ovarian) | TGI (K-562 leukemia) | TGI (KM12 colon) | TGI (LOX IMVI melanoma) | TGI (M14 melanoma) | TGI (MALME-3M melanoma) | TGI (MCF7 breast) | TGI (MDA-MB-231 breast) | TGI (MDA-MB-435) | TGI (MOLT-4 leukemia) | TGI (NCI-H226 lung) | TGI (NCI-H23 lung) | TGI (NCI-H460 lung) | TGI (NCI-H522 lung) | TGI (NCI/ADR-RES ovarian) | TGI (OVCAR-3 ovarian) | TGI (OVCAR-4 ovarian) | TGI (OVCAR-5 ovarian) | TGI (OVCAR-8 ovarian) | TGI (PC-3 prostate) | TGI (RPMI-8226 leukemia) | TGI (SF-268 CNS) | TGI (SF-295 CNS) | TGI (SF-539 CNS) | TGI (SK-MEL-2 melanoma) | TGI (SK-MEL-28 melanoma) | TGI (SK-OV-3 ovarian) | TGI (SN12C renal) | TGI (SNB-19 CNS) | TGI (SNB-75 CNS) | TGI (SR leukemia) | TGI (SW-620 colon) | TGI (T-47D breast) | TGI (TK-10 renal) | TGI (U251 CNS) | TGI (UACC-257 melanoma) | TGI (UACC-62 melanoma) | TGI (UO-31 renal)

COC12C=C/C(=C(/C(=O)OCc3cncnc3)C(=O)CCCCCCCCC3(OC)C=C/C(=C(/C(=O)OCc4cncnc4)C(=O)CCCCCCCC1)O3)O2
1.14 µM: TGI (K-562 leukemia)
2.81 µM: TGI (OVCAR-4 ovarian)
1.91 µM: TGI (NCI-H460 lung)
2.39 µM: TGI (EKVX NSCLC)
0.714 µM: TGI (RXF 393 renal)
1.47 µM: TGI (786-0 renal)
1.34 µM: TGI (HCT-15 colon)
inactive: GI50 (786-0 renal) 0.433 µM | GI50 (A498 renal) 0.961 µM | GI50 (A549 NSCLC) 0.848 µM | GI50 (CAKI-1 renal) 0.667 µM | GI50 (COLO 205 colon) 0.587 µM | GI50 (DU-145 prostate) 0.5 µM | GI50 (EKVX NSCLC) 0.717 µM | GI50 (HCC-2998 colon) 0.821 µM | GI50 (HOP-62 NSCLC) 0.624 µM | GI50 (HOP-92 NSCLC) 1 µM | GI50 (HS 578T breast) 1.3 µM | GI50 (IGROV1 ovarian) 0.589 µM | GI50 (MDA-MB-231 breast) 0.597 µM | GI50 (NCI-H226 lung) 0.656 µM | GI50 (NCI-H460 lung) 0.71 µM | GI50 (NCI/ADR-RES ovarian) 0.609 µM | GI50 (OVCAR-4 ovarian) 0.548 µM | GI50 (OVCAR-5 ovarian) 0.783 µM | GI50 (SF-539 CNS) 0.952 µM | GI50 (SK-MEL-2 melanoma) 1.13 µM | GI50 (SK-OV-3 ovarian) 1.23 µM | GI50 (SNB-19 CNS) 0.458 µM | GI50 (SNB-75 CNS) 1.19 µM | GI50 (TK-10 renal) 0.689 µM | GI50 (UACC-257 melanoma) 0.937 µM | GI50 (UACC-62 melanoma) 0.533 µM | GI50 (UO-31 renal) 0.542 µM
1.98 µM: TGI (SN12C renal)
2.94 µM: TGI (UACC-257 melanoma)
1.96 µM: TGI (IGROV1 ovarian)
2.24 µM: TGI (A549 NSCLC)
2.07 µM: TGI (BT-549 breast)
1.07 µM: TGI (OVCAR-3 ovarian)
2.18 µM: TGI (HOP-92 NSCLC)
2.25 µM: TGI (COLO 205 colon)
1.09 µM: TGI (HT29 colon)
1.28 µM: TGI (KM12 colon) | TGI (UO-31 renal)
1.06 µM: TGI (U251 CNS)
1.65 µM: TGI (NCI-H226 lung) | TGI (SK-MEL-28 melanoma)
4 µM: TGI (SF-268 CNS)
3.55 µM: TGI (RPMI-8226 leukemia)
0.524 µM: TGI (LOX IMVI melanoma)
1.93 µM: TGI (TK-10 renal)
> 50 µM: TGI (MDA-MB-231 breast) | TGI (NCI/ADR-RES ovarian) | TGI (OVCAR-8 ovarian) | TGI (SNB-19 CNS) | TGI (T-47D breast)
1.08 µM: TGI (ACHN renal)
0.433 µM: TGI (HCT-116 colon)
2.97 µM: TGI (HOP-62 NSCLC)
1.21 µM: TGI (UACC-62 melanoma)
0.408 µM: TGI (NCI-H522 lung)
1.61 µM: TGI (HCC-2998 colon) | TGI (M14 melanoma)
1.7 µM: TGI (A498 renal)
2.82 µM: TGI (HL-60(TB) leukemia)
1.19 µM: TGI (SW-620 colon)
5.31 µM: TGI (SK-OV-3 ovarian)
2.47 µM: TGI (SF-539 CNS)
6.24 µM: TGI (HS 578T breast)
2.03 µM: TGI (OVCAR-5 ovarian)
active: GI50 (ACHN renal) 0.36 µM | GI50 (BT-549 breast) 0.188 µM | GI50 (CCRF-CEM leukemia) 0.196 µM | GI50 (HCT-116 colon) 0.146 µM | GI50 (HCT-15 colon) 0.308 µM | GI50 (HL-60(TB) leukemia) 0.387 µM | GI50 (HT29 colon) 0.21 µM | GI50 (K-562 leukemia) 0.188 µM | GI50 (KM12 colon) 0.305 µM | GI50 (LOX IMVI melanoma) 0.155 µM | GI50 (M14 melanoma) 0.167 µM | GI50 (MCF7 breast) 0.209 µM | GI50 (MDA-MB-435) 0.099 µM | GI50 (NCI-H23 lung) 0.186 µM | GI50 (NCI-H522 lung) 0.137 µM | GI50 (OVCAR-3 ovarian) 0.195 µM | GI50 (OVCAR-8 ovarian) 0.207 µM | GI50 (RPMI-8226 leukemia) 0.207 µM | GI50 (RXF 393 renal) 0.199 µM | GI50 (SF-268 CNS) 0.312 µM | GI50 (SF-295 CNS) 0.326 µM | GI50 (SK-MEL-28 melanoma) 0.325 µM | GI50 (SN12C renal) 0.404 µM | GI50 (SR leukemia) 0.155 µM | GI50 (SW-620 colon) 0.19 µM | GI50 (T-47D breast) 0.232 µM | GI50 (U251 CNS) 0.212 µM
0.839 µM: TGI (NCI-H23 lung)
6.84 µM: TGI (SNB-75 CNS)
6.61 µM: TGI (SR leukemia)
1.74 µM: TGI (SF-295 CNS)
2.11 µM: TGI (CAKI-1 renal)
2.55 µM: TGI (DU-145 prostate)
0.208 µM: TGI (MDA-MB-435)
2.32 µM: TGI (MCF7 breast)
3.79 µM: TGI (CCRF-CEM leukemia)
18.1 µM: TGI (SK-MEL-2 melanoma)

— PubChem BioAssay (NCI)
